pIC50: −log10 of the molar value. Like-named read-outs stand apart in the source and are kept apart here. Starred links: 1 amine or outer side, 2 acyl side, 3 side chain; linkers in the order of their positions; H or OH if unused. Positions of bridges follow the written chain, without caps; N, C: chain ends. Non-standard residues stand in square brackets, D forms with d. Residues, ends and D or L forms follow the SMILES beside them. Chains are numbered I, II in the order given. Actinocin(9to1) = Cc1c2oc3c(C)ccc(C(=O)[*:1])c3nc-2c(C(=O)[*:2])c(N)c1=O; NMeV = CN[C@H](C(=O)O)C(C)C; Sar = CNCC(=O)O
What was measured:
[1] = system: SOX17 (endoderm marker) in RUES2-GLR cells; experiment: DevTox GLR-Endo assay: decrease in percent SOX17-positive cells (AEID 3094, Sox17_dn); conditions: for Hit Call: Table S2, SOX17-positive cells, cutoff 3*bmad; for DevTox ACC: Table S2, percent SOX17-positive cells; for HIT−CALL: tcpl plot AEID3094, COFF 20.3
In short: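 Readouts are loss of SOX17-positive fraction and reduced cell number in endoderm-differentiating RUES2-GLR cells after 48 h of chemical exposure. Controls: undifferentiated and differentiated cells, 0.2% DMSO, and 1 µM SB431542; at least four biological replicates.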

[2] = system: SOX17 (endoderm marker) in RUES2-GLR cells; experiment: DevTox GLR-Endo assay: increase in percent SOX17-positive cells (AEID 3093, Sox17_up); type: cell-based, human; conditions: for Emax: Homo sapiens; for HIT−CALL: tcpl plot AEID3093, COFF 20.3
Description: The total test chemical incubation period was 48 h.
(Supplementary Materials).

RUES2-GLR cells = experiment: DevTox GLR-Endo assay: decrease in total cell count, cytotoxicity (AEID 3098, CellCount_dn); conditions: for Emax: Homo sapiens, read-out: Cell Count % Max Inhibition
in vitro = conditions: human
[3] = system: SOX17 in H9 human ESC line; conditions: SOX17 half-maximal inhibition concentration; read-out: hPST IC50; cited from earlier work
H9 human ESC line = conditions: cited from earlier work
[4] = cited from earlier work; for Development Toxicant Classification: Table S2; for Classification: developmental toxicant classification (Teratogen / Non-Teratogen) of reference and training chemicals, ref DOI per chemical: 10.1093/toxsci/kft239, 10.1093/toxsci/kfaa014, 10.1177/026119290203000204, 10.1038/s41598-020-59542-x; for DT Class.: developmental toxicant classification, chemicals common with hPST
[5] = system: SOX2 (ectoderm and pluripotency marker) in RUES2-GLR cells; experiment: DevTox GLR-Endo assay: increase in percent SOX2-positive cells (AEID 3095, Sox2_up); conditions: for AC50 / Emax: Homo sapiens; for AC50: read-out: ga (winning model); for Emax: read-out: tp (winning model); for MAX_MEAN: tcpl plot AEID3095, maximum mean response; for MAX_MED: tcpl plot AEID3095, maximum median response;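 as to all read-outs here: cells exposed to test chemicals for 48 h in total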
[6] = Homo sapiens, 48 h, read-out: DevTox-GLR Endo AC50 (µM)
[7] = Homo sapiens, read-out: DevTox % Max Inhibition
[8] = Homo sapiens, read-out: MAX_MEAN
[9] = Homo sapiens, read-out: MAX_MED
[10] = Homo sapiens, read-out: ga (winning model)
[11] = Homo sapiens, read-out: tp (winning model)
[12] = tcpl plot AEID3093, maximum mean response, read-out: MAX_MEAN
[13] = tcpl plot AEID3093, maximum median response, read-out: MAX_MED
[14] = cytotoxicity half-maximal concentration
[15] = Homo sapiens, 48 h, read-out: DevTox-GLR Endo AC50 (µM), SOX17 half-maximal activity concentration, 48 h exposure
[16] = Homo sapiens, read-out: ga (winning model), tcpl plot AEID3094, gain parameter of winning curve fit (log concentration, µM axis), hit calls only (converted)
[17] = RUES2-GLR cells under directed endoderm differentiation

| SMILES | Emax [1, 7] | Emax [1, 8] | Emax [1, 9] | Emax [1, 11] | Hit Call [1] | DevTox ACC ([1]; 48 h exposure) | HIT−CALL [1] | Emax [2, 12] | HIT−CALL [2] | Emax (RUES2-GLR cells) | pIC50 [3] | hPST TC50 (H9 human ESC line; [14]) | hPST TC50 (H9 human ESC line; hPST cytotoxicity) | Development Toxicant Classification [4] | Classification [4] | DT Class. [4] | AC50 [5] | Emax [5] | MAX_MEAN [5] | MAX_MED [5] | further results |
| --- | --- | --- | --- | --- | --- | --- | --- | --- | --- | --- | --- | --- | --- | --- | --- | --- | --- | --- | --- | --- | --- |
| NC(=O)c1ccc(N)nc1 [6-Aminonicotinamide, 6−aminopyridine−3−carboxamide] | 101% | 101% | 101% | 101% | Positive | 12.5605 µM | 1 | 2.7% | 0 | 89.9% | 5.15 | 8 µM | 8 µM | Positive | Teratogen | Pos | 309 µM | 9.6% | 4.77 Percent Activity | 4.39 Percent Activity | AC50 [1, 6]: 16.6 µM; AC50 [1, 10]: 16.6 µM; SOX17 ACC relative to cytotoxic concentration (in words) ([1]; training set, ACC versus cell count ACC): below cytotoxic concentrations; Emax [2, 13]: 3%; Cell Count ACC (RUES2-GLR cells; Table S2, 48 h exposure): 20.3443 µM; CC50 (in vitro): 23.9 µM |
| COc1ccc2nc([S@@+]([O-])Cc3ncc(C)c(OC)c3C)[nH]c2c1 [Esomeprazole] | 101% | 101% | 101% | 123% | Positive | 12.9286 µM | 1 | 0.101% | 0 | 94% | 4.49 | 101 µM | 101 µM | Negative | Non-Teratogen | Neg | 69.2 µM | 17.4% | 23.9 Percent Activity | 21.6 Percent Activity | SOX17 ACC relative to cytotoxic concentration (in words) [1]: below cytotoxic concentrations; hit call designation (in words) ([1]; DevTox GLR-Endo prediction against developmental toxicant classification): false positive; AC50 [1, 15]: 34 µM; AC50 [1, 16]: 33.9 µM; Emax ([1]; Homo sapiens, read-out: maximum observed effect level class (% max inhibition)): 80 to 100%; AC50 ([1]; read-out: DevTox-GLR Endo AC50, SOX17 half-maximal activity concentration, 48 h exposure): 33.8 µM; Emax [2, 13]: 1.23%; Cell Count ACC (RUES2-GLR cells; human, 48 h): 28.1982 µM; CC50 at 48 h (in vitro; [17]): 38.5 µM |
| CCN(CC)CCNC(=O)c1c(C)[nH]c(/C=C2\C(=O)Nc3ccc(F)cc32)c1C [Sunitinib] | 102% | 102% | 102% | 101% | Positive | 0.5184 µM | 1 | 0.538% | 0 | 97.7% | 5.55 | 3.6 µM | 3.6 µM | Positive | Teratogen | Pos | 5.41 µM | 6.74% | 3 Percent Activity | 3.23 Percent Activity | SOX17 ACC relative to cytotoxic concentration (in words) [1]: below cytotoxic concentrations; AC50 [1, 15]: 0.63 µM; AC50 [1, 16]: 0.628 µM; Emax [2, 13]: 0.596%; Cell Count ACC (RUES2-GLR cells; Table S2, 48 h exposure): 0.6087 µM; CC50 at 48 h (in vitro; [17]): 1.26 µM |
| O=c1[nH]c(=O)n([C@H]2C[C@H](O)[C@@H](CO)O2)cc1Br [5-Bromo-2’-deoxyuridine] | 102% | 102% | 102% | 101% | Positive | 0.4591 µM | 1 | -2.88% | 0 | 87.6% | 6.70 | 3.4 µM | 3.4 µM | Positive | Teratogen | Pos | 13.2 µM | 2.13% | 2.12 Percent Activity | 2.23 Percent Activity | SOX17 ACC relative to cytotoxic concentration (in words) [1]: below cytotoxic concentrations; AC50 [1, 15]: 0.55 µM; AC50 [1, 16]: 0.548 µM; Emax [2, 13]: -2.98%; Cell Count ACC (RUES2-GLR cells; human, 48 h): 3.994 µM; CC50 at 48 h (in vitro): 9.37 µM |
| c1cc(-c2cnn3cc(-c4ccc(OCCN5CCCCC5)cc4)cnc23)ccn1 [Dorsomorphin] | 99.6% | 99.4% | 99.6% | 114% | Positive | 8.65 µM | 1 | 9.04% | 0 | 95.1% | 6.52 | 2.4 µM | 2.4 µM | Positive | Teratogen | Pos | 10.7 µM | 38.7% | 16.8 Percent Activity | 17 Percent Activity | AC50 [1, 15]: 17.1 µM; AC50 [1, 16]: 17 µM; Emax [2, 13]: 8.93%; Cell Count ACC (RUES2-GLR cells; human, 48 h): 6.307 µM; CC50 at 48 h (in vitro): 16.7 µM |
| Cc1c2oc3c(C)ccc(C(=O)N[C@@H]4C(=O)N[C@H](C(C)C)C(=O)N5CCC[C@H]5C(=O)N(C)CC(=O)N(C)[C@@H](C(C)C)C(=O)O[C@@H]4C)c3nc-2c(C(=O)N[C@@H]2C(=O)N[C@H](C(C)C)C(=O)N3CCC[C@H]3C(=O)N(C)CC(=O)N(C)[C@@H](C(C)C)C(=O)O[C@@H]2C)c(N)c1=O [Actinomycin D] (I: T[dV]P[Sar][NMeV] / II: T[dV]P[Sar][NMeV]; ester I:1-I:C, II:1-II:C; linker I:N-II:N via Actinocin(9to1)) | 101% | 102% | 101% | 101% | Positive | 2.881e-05 µM | 1 |  | 0 | 96% | > 8.00 | <0.01 µM | < 0.01 µM | Positive | Teratogen | Pos | 0.1 µM | 24% | 20.2 Percent Activity | 20.2 Percent Activity | SOX17 ACC relative to cytotoxic concentration (in words) [1]: below cytotoxic concentrations; AC50 [1, 6]: 3.7e-05 µM; AC50 [1, 10]: 3.63e-05 µM; Emax ([2]; read-out: MAX_MEAN): 6.35%; Emax ([2]; read-out: MAX_MED): 3.62%; Cell Count ACC (RUES2-GLR cells; Table S2, 48 h exposure): 0.0003574 µM; CC50 (in vitro): 0.00048 µM |

Reference: paper PMC9321663, “The DevTox Germ Layer Reporter Platform: An Assay Adaptation of the Human Pluripotent Stem Cell Test” (Toxics, 2022)
